The source of these data is publication PMC9849758, “Chemically diverse activity-based probes with unexpected inhibitory mechanisms targeting trypsin-like serine proteases” (Frontiers in Chemistry, 2023).

What all share (assay type): biochemical
Assay [1] concerns the target T1, β-tryptase (recombinant tryptase β-2) (Homo sapiens, UniProt P20231).
T1 construct: purchased EnzoLife Sciences
The assay can be described thus: IC50 determination, spectrophotometric protease assay. Put shortly:
(§1)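 Readout is liberation of para-nitroaniline or 7-amino-4-methylcoumarin from the protease substrate, each at Km, measured for 30 min at 37°C. IC50 comes from a four-parameter logistic fit of duplicate runs.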

In assay [2] the target is T2, Thrombin (recombinant thrombin) (Homo sapiens, UniProt P00734).
T2 construct: purchased R&D
The description is as above. Put shortly: as §1

Assay [3] has as its target T3, Trypsin-3 (recombinant trypsin-3) (Homo sapiens, UniProt P35030).
T3 construct: purchased R&D
T3 sequence (P35030 1-304): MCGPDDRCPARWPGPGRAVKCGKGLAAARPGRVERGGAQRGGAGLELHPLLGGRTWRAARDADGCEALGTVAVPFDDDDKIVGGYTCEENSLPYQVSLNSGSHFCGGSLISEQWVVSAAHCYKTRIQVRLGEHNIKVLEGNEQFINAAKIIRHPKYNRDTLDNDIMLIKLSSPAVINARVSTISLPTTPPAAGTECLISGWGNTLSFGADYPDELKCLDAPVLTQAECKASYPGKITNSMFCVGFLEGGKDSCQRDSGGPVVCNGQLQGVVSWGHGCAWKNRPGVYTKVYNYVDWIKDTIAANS
Described as above. Put shortly:
as §1

The target in assay [4] is T4, TLCK-treated pancreatic bovine chymotrypsin (Bos taurus, UniProt P00766).
T4 construct: TLCK-treated pancreatic bovine chymotrypsin (Sigma-Aldrich); purchased Sigma-Aldrich; host or cells: bovine pancreas
The description is as above. Put shortly: as §1

Assay [5] addresses T5, uPA (recombinant urokinase plasminogen activator) (Homo sapiens, UniProt P00749).
T5 construct: purchased HYPHEN BioMed
Described as above. The method in brief:
as §1

Assay [6] addresses T6, Cathepsin G (cathepsin G human neutrophil) (Homo sapiens, UniProt P08311).
T6 construct: Cathepsin G (cathepsin G human neutrophil, Sigma-Aldrich); purchased Sigma-Aldrich; host or cells: human neutrophil
T6 sequence (P08311 21-255): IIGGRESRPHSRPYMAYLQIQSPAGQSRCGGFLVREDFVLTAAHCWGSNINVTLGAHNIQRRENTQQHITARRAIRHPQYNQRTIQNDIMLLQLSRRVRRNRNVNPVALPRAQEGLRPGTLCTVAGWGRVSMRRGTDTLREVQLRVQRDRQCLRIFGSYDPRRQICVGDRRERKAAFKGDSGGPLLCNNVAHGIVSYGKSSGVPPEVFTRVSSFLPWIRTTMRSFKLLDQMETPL
The description is as above. Put shortly: as §1

The target of the next assay is β-tryptase (Homo sapiens, UniProt P20231). The assay can be described thus: Kinetic progress curves (kapp, K1, KI*, mechanism). The note with it: for β-tryptase kapp: apparent second-order rate constant from progress curves; for β-tryptase kapp / Ki: mean ± SD; for β-tryptase mechanism of inhibition: defined by the progress curves: slow-binding (Rev.) or irreversible (Irrev.). Also on record: purchased EnzoLife Sciences. Here is the method: (§2) Because the compounds described in this paper were previously described as irreversible inhibitors, the IC50 value is inversely correlated with the second-order rate constant of inactivation. For a simple pseudo-first-order inactivation process, the activity after incubation with inhibitor (vi) varies with the inhibitor concentration (i), as described in the following equation: vi=v0·e^−kit where v0 is the activity in the absence of an inhibitor, k is the second-order rate constant of inactivation, and t is the time. The inactivation rate constant was determined from the time course of inhibition.
(§3) Kinetic assays were performed in the following manner. The inhibitor was mixed with the substrate, and the buffer solution with the enzyme was added at the time zero. The progress curves show the release of pNA or AMC as a function of time. Initially, no inhibitor is bound to the enzyme, and the tangent to the progress curve (dA/dt) is proportional to the free enzyme concentration. The free enzyme concentration decreases over time due to inhibitor binding kinetics, as described above. Progress curves were recorded in pseudo-first-order conditions ([I]0>>[E]0) and with less than 10% conversion of the substrate during the entire time course. In these conditions, dA/dt decreases exponentially with time. The progress curves were fitted with the integrated rate equation with GraFit7 to yield a value for kobs, a pseudo-first-order rate constant. At=Ao+vs∙t+vi−vs∙1−e^−kobs∙t/kobs where At is the absorbance at time t, A0 is the absorbance at time zero, vi is the initial rate and vs is the velocity at the steady-state.
(§4) The apparent second-order rate constant (kapp) was calculated from the slope of the linear part of the plot of kobs vs. the inhibitor concentration ([I]0). In the case of competition between the inhibitor and the substrate, kapp is smaller than the “real” second-order rate constant k discussed above because a certain fraction of the enzyme is present as an enzyme-substrate complex. kapp depends on the substrate concentration used in the experiment, as described by [Lambeir et al. (1996)].
(§5) The apparent equilibrium constants were obtained from the following equations, vi/vo=1/1+I/K1; vS/vo=1/1+I/KI* where vi is the initial rate, vs is the steady-state velocity and vo is the uninhibited initial rate.

In a further assay the target is T7, uPA (Homo sapiens, UniProt P00749).
T7 construct: purchased HYPHEN BioMed
As to the kind of experiment: Kinetic progress curves (kapp, mechanism). Conditions: for uPA kapp: apparent second-order rate constant from progress curves, mean ± SD; for uPA mechanism of inhibition: defined by the progress curves: slow-binding (Rev.) or irreversible (Irrev.). On the procedure:
as §2, §3, §4, §5

[7] abbreviates: β-tryptase K1, apparent equilibrium constant of the first step of slow-binding.
[8] abbreviates: β-tryptase KI*, apparent equilibrium constant of the overall process.
The mark [9] stands for this setting: read-out: β-tryptase IC50, desthiobiotin probes, 15 min preincubation at 37°C, mean ± SD.
The mark [10] stands for this setting: read-out: Thrombin IC50, desthiobiotin probes, 15 min preincubation at 37°C, mean ± SD.
Where [11] appears, read: read-out: Trypsin-3 IC50, desthiobiotin probes, 15 min preincubation at 37°C, mean ± SD.
Setting [12] is: read-out: ChTryp IC50, desthiobiotin probes, 15 min preincubation at 37°C, mean ± SD.
[13] abbreviates: read-out: uPA IC50, desthiobiotin probes, 15 min preincubation at 37°C, mean ± SD.
The mark [14] stands for this setting: read-out: CatG IC50, desthiobiotin probes, 15 min preincubation at 37°C, mean ± SD.

“Also recorded” adds a separate entry of the source. Like-named read-outs stand apart in the source and are kept apart here.

Chain of β-tryptase (P20231 31-275): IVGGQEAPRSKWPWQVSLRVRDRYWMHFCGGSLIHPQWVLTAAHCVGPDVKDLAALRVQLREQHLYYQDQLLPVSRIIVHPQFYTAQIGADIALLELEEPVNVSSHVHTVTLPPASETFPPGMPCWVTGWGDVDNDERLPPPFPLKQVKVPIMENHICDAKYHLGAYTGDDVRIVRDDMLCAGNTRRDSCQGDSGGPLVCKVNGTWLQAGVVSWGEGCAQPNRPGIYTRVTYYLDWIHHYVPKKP
T1 sequence (P20231 31-275): as above

What is called IC50 is the concentration at which inhibition is half-maximal. In the case of `CC(=O)Nc1ccc(OP(=O)(Oc2ccc(NC(C)=O)cc2)C(Cc2ccc(NC(=N)N)cc2)NC(=O)OCCCc2cn(CCOCCOCCOCCNC(=O)CCCCC[C@H]3NC(=O)N[C@H]3C)nn2)cc1` (stereo partly drawn) [52b], the IC50 was 0.07 ± 0.003 µM in assay [1]; 0.76 ± 0.02 µM in assay [2]; 0.01 ± 0.001 µM in assay [3]; greater than 10 µM in assay [4]; 0.01 ± 0.003 µM in assay [5]; 0.05 ± 0.007 µM in assay [6]. Moreover, on β-tryptase, the β-tryptase kapp was 18 × 10^3 ± 1184 M^−1 s^−1. Also, at β-tryptase, the “β-tryptase mechanism of inhibition” value is “Reversible and Rev”. The Ki on β-tryptase (setting [7]) came out at 0.68 ± 0.07 µM; on β-tryptase (setting [8]), 0.06 ± 0.003 µM. The uPA kapp on uPA is on record as 38 × 10^3 ± 4175 M^−1 s^−1. Moreover, on uPA, the “uPA mechanism of inhibition” value was “Irrev”.
On to `C#CCCCOC(=O)NC(CCCNC(=N)N)P(=O)(Oc1ccc(Cl)cc1)Oc1ccc(Cl)cc1` (stereo not drawn) [33b], for which the IC50 in assay [1] is 0.17 ± 0.01 µM; in assay [2], 0.11 ± 0.007 µM; in assay [3] it was 0.04 ± 0.008 µM; in assay [4] it was greater than 10 µM; in assay [5], 0.25 ± 0.03 µM; in assay [6], 2.76 ± 0.05 µM. For the same compound, at β-tryptase, the β-tryptase kapp was 28 × 10^2 ± 82 M^−1 s^−1. Also, the “β-tryptase mechanism of inhibition” value on β-tryptase was “irreversibility; also recorded: irreversible; also recorded: Irrev”. The uPA kapp on uPA is given as 15 × 10^2 ± 12 M^−1 s^−1. Besides, the “uPA mechanism of inhibition” value at uPA is reported as “irreversibility; also recorded: Irrev”.
As for `C[C@@H]1NC(=O)N[C@@H]1CCCCCC(=O)NCCOCCOCCOCCn1cc(CCCOC(=O)NC(c2ccc(NC(=N)N)cc2)P(=O)(Oc2ccccc2)Oc2ccccc2)nn1` (stereo partly drawn) [55b], the IC50 is 0.37 ± 0.09 µM in assay [1] (setting [9]); greater than 10 µM in assay [2] (setting [10]); 0.24 ± 0.01 µM in assay [3] (setting [11]); greater than 10 µM in assay [4] (setting [12]); 2.22 ± 0.07 µM in assay [5] (setting [13]); 1.62 ± 0.09 µM in assay [6] (setting [14]). In addition, on β-tryptase, the β-tryptase kapp was 347 ± 19 M⁻¹ s⁻¹. Moreover, the “β-tryptase mechanism of inhibition” value at β-tryptase is “Irrev”. Moreover, the uPA kapp on uPA is 77 ± 1 M⁻¹ s⁻¹. Besides, on uPA, the “uPA mechanism of inhibition” value is given as “Irrev”.
Consider `C#CCCCOC(=O)NC(Cc1ccc(NC(=N)N)cc1)P(=O)(Oc1ccc(Cl)cc1)Oc1ccc(Cl)cc1` (stereo not drawn) [36b], for which the IC50 is 0.07 ± 0.02 µM in assay [1]; 1.77 ± 0.05 µM in assay [2]; less than 0.001 µM in assay [3]; 3.23 ± 1.21 µM in assay [4]; 0.005 ± 0.0003 µM in assay [5]; 0.34 ± 0.008 µM in assay [6]. Moreover, at β-tryptase, the β-tryptase kapp is 61 × 10^3 ± 6860 M^−1 s^−1. The “β-tryptase mechanism of inhibition” value on β-tryptase is “reversible and Rev”. The figures for the Ki on β-tryptase (setting [7]) and at β-tryptase (setting [8]) were 0.34 ± 0.07 µM and 0.09 ± 0.01 µM, respectively. Also, at uPA, the uPA kapp is 320000 ± 29000 M⁻¹ s⁻¹. The “uPA mechanism of inhibition” value at uPA is “Irrev”.
In the case of `C#CCCCOC(=O)NC(Cc1ccc(NC(=N)N)cc1)P(=O)(Oc1ccc(NC(C)=O)cc1)Oc1ccc(NC(C)=O)cc1` (stereo not drawn) [35b], the IC50 in assay [1] was 0.05 ± 0.003 µM; in assay [2], 1.11 ± 0.05 µM; in assay [3], less than 0.001 µM; in assay [4] it was greater than 10 µM; in assay [5] it was 0.005 ± 0.001 µM; in assay [6] it was 0.06 ± 0.006 µM. Moreover, the β-tryptase kapp at β-tryptase is reported as 70 × 10^2 ± 582 M^−1 s^−1. The “β-tryptase mechanism of inhibition” value on β-tryptase is reported as “Rev”. Moreover, the values for the Ki at β-tryptase (setting [7]) and at β-tryptase (setting [8]) were 3.2 ± 1.8 µM and 0.12 ± 0.01 µM, respectively. The uPA kapp at uPA was 130000 ± 30000 M⁻¹ s⁻¹. For the same compound, the “uPA mechanism of inhibition” value on uPA was “Irrev”.
Consider `C#CCCCOC(=O)NC(c1ccc(NC(=N)N)cc1)P(=O)(Oc1ccccc1)Oc1ccccc1.O=C(O)C(F)(F)F` (stereo not drawn) [37b, Pent-4-yn-1-yl ((diphenoxyphosphoryl)(4-guanidinophenyl)methyl)carbamate trifluoroacetate salt], for which the concentration for half-maximal inhibition (IC50) in assay [1] is 0.9 ± 0.1 µM; in assay [2], greater than 10 µM; in assay [3] it was 0.23 ± 0.01 µM; in assay [4], greater than 10 µM; in assay [5], 1.79 ± 0.003 µM; in assay [6] it was 0.64 ± 0.03 µM. The β-tryptase kapp on β-tryptase came out at 375 ± 34 M⁻¹ s⁻¹. The “β-tryptase mechanism of inhibition” value on β-tryptase is on record as “Irrev”. Besides, the uPA kapp on uPA came to 124 ± 23 M⁻¹ s⁻¹. Moreover, the “uPA mechanism of inhibition” value at uPA was “Irrev”.
In the case of `C[C@@H]1NC(=O)N[C@@H]1CCCCCC(=O)NCCOCCOCCOCCn1cc(CCCOC(=O)NC(Cc2ccc(NC(=N)N)cc2)P(=O)(Oc2ccc(Cl)cc2)Oc2ccc(Cl)cc2)nn1` (stereo partly drawn) [54b], the IC50 was determined as 0.11 ± 0.009 µM in assay [1]; 0.2 ± 0.02 µM in assay [2]; 0.008 ± 0.002 µM in assay [3]; 5.6 ± 1.06 µM in assay [4]; 0.006 ± 0.0001 µM in assay [5]; 0.12 ± 0.01 µM in assay [6]. For the same compound, at β-tryptase, the “β-tryptase mechanism of inhibition” value is recorded as “reversible slow-binding mechanism; also recorded: * ^d Rev”. The Ki on β-tryptase (setting [7]) worked out at 0.13 ± 0.03 µM; on β-tryptase (setting [8]) it was 0.02 ± 0.001 µM. The uPA kapp at uPA was 230000 ± 36000 M⁻¹ s⁻¹. Besides, on uPA, the “uPA mechanism of inhibition” value is “Irrev”.
With `C[C@@H]1NC(=O)N[C@@H]1CCCCCC(=O)NCCOCCOCCOCCn1cc(CCCOC(=O)NC(CCCNC(=N)N)P(=O)(Oc2ccc(Cl)cc2)Oc2ccc(Cl)cc2)nn1` (stereo partly drawn) [46b], the IC50 in assay [1] (setting [9]) is 0.04 ± 0.006 µM; in assay [2] (setting [10]) it was 0.04 ± 0.006 µM; in assay [3] (setting [11]) it was 0.07 ± 0.002 µM; in assay [4] (setting [12]) it was greater than 10 µM; in assay [5] (setting [13]), 0.42 ± 0.05 µM; in assay [6] (setting [14]), greater than 10 µM. Further, the β-tryptase kapp at β-tryptase is recorded as 75 × 10^2 ± 1475 M^−1 s^−1. In addition, the “β-tryptase mechanism of inhibition” value on β-tryptase is recorded as “Irrev”. Besides, the uPA kapp at uPA amounted to 940 ± 37 M⁻¹ s⁻¹. Further, at uPA, the “uPA mechanism of inhibition” value is reported as “Irrev”.
